According to article PMC11243320, “Tailoring Fibroblast-Activation Protein Targeting for Theranostics: A Comparative Preclinical Evaluation of the ^68Ga- and ^177Lu-Labeled Monomeric and Dimeric Fibroblast-Activation Protein Inhibitors DOTA.SA.FAPi and DOTAGA.(SA.FAPi)2” (Molecules, 2024):

System: human serum proteins
Experiment: Binding to human serum proteins, 30 min incubation
Type: in vitro ADME
Settings: 37 °C
Method: The lipophilicity (LogDoctanol/PBS) and protein binding of the four radiotracers in human serum were determined as described in the Supplemental Data. […]
minimum conjugate amount. Briefly, the Ge-68/Ga-68 generator was eluted with 5 mL HCl 0.1 N and the eluate (~300 MBq) was loaded onto a cation exchange column (Strata-XC, Phenomenex). Gallium-68 was eluted with 700 μL of a mixture of 5.5 M NaCl / 0.1 M HCl (prepared by mixing 0.530 mL of ultrapure 30% aq. HCl and 49.5 mL of 5.5M NaCl) directly into a vial containing 400 μL of 1.8 M sodium acetate buffer (pH 4.3) for DOTA.SA.FAPi or 2 mL 1.45 M HEPES (pH 4.1) for DOTAGA.(SA.FAPi)2, 2 mL H2O (only in case of DOTA.SA.FAPi), 200 μL of EtOH, and 20 μg (approximately 20 nmol) of the conjugate, followed by Sep-Pak C-18 purification to remove uncomplexed gallium-68. The purified [68Ga]Ga-DOTA.SA.FAPi and [68Ga]Ga-DO,TAGA.(SA.FAPi)2 were eluted in 2.7 mL of a solution of 12% EtOH in PBS. […]
The 68Ga- and 177Lu-labelled radiotracers (20 pmol; 0.3 MBq) were incubated with commercially available human serum (0.5 mL) at 37 °C for 30 min. […] After careful separation of the two phases, the respective activities were measured in a gamma counter, followed by determination of the percentage of the radiotracer that bound […]

Percentage of human serum protein bound activity [%]	SMILES
10.6 ± 3.9	N#C[C@@H]1CC(F)(F)CN1C(=O)CNC(=O)c1ccnc2ccc(OCCCCNc3c(NCCNC(=O)CN4CCN(CC(=O)[O-])CCN(CC(=O)[O-])CCN(CC(=O)[O-])CC4)c(=O)c3=O)cc12.[68Ga+3] [[^68Ga]Ga-DOTA.SA.FAPi]
9.9 ± 4.4	N#C[C@@H]1CC(F)(F)CN1C(=O)CNC(=O)c1ccnc2ccc(OCCCCNc3c(NCCNC(=O)CN4CCN(CC(=O)[O-])CCN(CC(=O)[O-])CCN(CC(=O)[O-])CC4)c(=O)c3=O)cc12.[177Lu+3] [[^177Lu]Lu-DOTA.SA.FAPi]
